From patent US11419803B2, “Skin darkening composition” (Conopco, Inc., priority 2017, dated 2022)

What was measured:
[1] = tested on: Neonatal foreskin primary human epidermal melanocytes; assay: Cell viability, calcein method; type: cell-based
Method: (§1) All test compounds were purchased from SIGMA-ALDRICH as powders. They were tested at various concentrations in cell culture (see below). Forskolin (SIGMA Cat. # F6886) was used as reference comparators, as they have been reported to increase melanin content. Neonatal foreskin primary human epidermal melanocytes were procured from Cascade Biologicals (labelled passage P0). Melanocytes were maintained in Medium 254CF (Cascade Cat. # M-254CF-500) supplemented with human melanocyte growth supplement (Cascade; Cat. # S-002-5), hereafter referred to as MGM. Cells were maintained at 37° C. in a humidified incubator with 5% CO2 atmosphere.
(§2) 50,000 cells were seeded in 24 well plate in MGM; after 24 hours, cultures were treated with various concentrations of the test materials and left undisturbed for a further period of 72 hours. Comparative vehicle controls of 0.25% (v/v) DMSO were also set up in parallel, simultaneously. At the end of the incubation period, cell viability was determined using the calcein method.
Briefly, cell culture spent media was removed and cells washed once with 0.4 ml of 1× PBS-Ca—Mg solution. Fresh 1 μM calcein-AM was added (0.2 ml/well), including to control wells without cells. Plates were covered with aluminium foil and incubated for 30 minutes. at 37° C. in the regular CO2 incubator. Calcein fluorescence was then measured (λmax 490 nm and λmax 520 nm) in TECAN® M1000 Infinite series plate reader.
(§3) Calcein fluorescence values were ratio converted in 0 to 100 scale (% viability), with 100 representing the value of the 0.25% DMSO sample. % Melanin content was calculated as the ratio between OD405 nm value of any sample to that of DMSO reference sample.

[2] = tested on: Neonatal foreskin primary human epidermal melanocytes; assay: Melanin content assay; type: cell-based; conditions: 72 hours, compared to vehicle control = 100
Method: as §1, §2
After calcein fluorescence readings were obtained, cells were drained and added fresh 125 μl of 1N NaOH (in 10% DMSO) per well. Cells were lysed by resuspension and incubation (60° C./1 hour.). Then this lysate was transferred to a fresh […] and measured OD405 nm in a TECAN M1000 plate reader (estimate of relative melanin content).
as §3
Normalized melanin content value was then calculated as 100*(% Melanin Content)/(% Cellular viability).
The percentage Increase in melanin content was estimated as [(Normalized melanin content)−100]

CCCCCCCOc1ccc(C(=O)O)cc1 [Example 2, 4-heptyloxybenzoic acid]
% Viability ([1]; 10 micromolar, 72 hours, relative to 0.25% DMSO control = 100): 94% | % Viability ([1]; 15 micromolar, 72 hours, relative to 0.25% DMSO control = 100): 96% | % Viability ([1]; 20 micromolar, 72 hours, relative to 0.25% DMSO control = 100): 95% | % Viability ([1]; 25 micromolar, 72 hours, relative to 0.25% DMSO control = 100): 96% | % Melanin content ([2]; 10 micromolar): 117% | % Melanin content ([2]; 15 micromolar): 126% | % Melanin content ([2]; 20 micromolar): 129% | % Melanin content ([2]; 25 micromolar): 137%

CCCCCCCCOc1ccc(C(=O)O)cc1 [Example 3, 4-octyloxybenzoic acid]
% Viability ([1]; human, 72 h, 10 µM): 101% | % Viability ([1]; human, 72 h, 15 µM): 103% | % Viability ([1]; human, 72 h, 20 µM): 100% | % Viability ([1]; human, 72 h, 25 µM): 86% | % Melanin content ([2]; 10 micromolar): 127% | % Melanin content ([2]; 15 micromolar): 144% | % Melanin content ([2]; 20 micromolar): 127% | % Melanin content ([2]; 25 micromolar): 86%

CCCCCCCCCCCOc1ccc(C(=O)O)cc1 [Example 5, 4-undecyloxybenzoic acid]
% Viability ([1]; human, 72 h, 10 µM): 97% | % Viability ([1]; human, 72 h, 15 µM): 100% | % Viability ([1]; human, 72 h, 20 µM): 90% | % Viability ([1]; human, 72 h, 25 µM): 79% | % Melanin content ([2]; 10 micromolar): 136% | % Melanin content ([2]; 15 micromolar): 146% | % Melanin content ([2]; 20 micromolar): 134% | % Melanin content ([2]; 25 micromolar): 120%

CCCCCCCCCOc1ccc(C(=O)O)cc1 [Example 4, 4-nonyloxybenzoic acid]
% Viability ([1]; human, 72 h, 5 µM): 102% | % Viability ([1]; human, 72 h, 10 µM): 109% | % Viability ([1]; human, 72 h, 15 µM): 109% | % Viability ([1]; human, 72 h, 20 µM): 103% | % Viability ([1]; human, 72 h, 25 µM): 103% | % Melanin content ([2]; 5 micromolar): 126% | % Melanin content ([2]; 10 micromolar): 129% | % Melanin content ([2]; 15 micromolar): 136% | % Melanin content ([2]; 20 micromolar): 130% | % Melanin content ([2]; 25 micromolar): 137%

CCCCCCCc1ccc(C(=O)O)cc1 [Example 1, 4-heptyl benzoic acid]
% Viability ([1]; human, 72 h, 6.25 µM): 102% | % Viability ([1]; human, 72 h, 12.5 µM): 102% | % Viability ([1]; human, 72 h, 25 µM): 93% | % Melanin content ([2]; 6.25 micromolar): 124% | % Melanin content ([2]; 12.5 micromolar): 129% | % Melanin content ([2]; 25 micromolar): 113%
